Measurements as given in patent US12617813B2, “Glycosylated histone deacetylase inhibitors and methods of making and using the same” (Georgia Tech Research Corporation, priority 2020, dated 2026).

Assays:
Hep-G2 [1] = assay: Cell cycle analysis in Hep-G2; type: cell-based; settings: Hep-G2, 15 μM, 48 h (FIG. 4)
Protocol: Hep-G2 was cultured in all) cm petri dish until 80% confluence. The cell was serum starved overnight before drug treatment. Subsequently, cells were treated with 10 mL of 0.1% DMSO medium, 0.1% DMSO solution of SAHA (5 μM) or STR-V-53 (15 μM), respectively for 48 h. (a) The control group of Hep-G2 (1); SAHA (5 μM) treated group (2); and STR-V-53 (15 μM) treated group (3). […] (b) Cell distribution in each stage. (c) Analysis of the percentage cell population in cell cycle stages.

[2] = test system: acetylated tubulin and histone H4; assay: Western blot of on-target effect (HDAC inhibition) in Hep-G2 cells; type: cell-based; settings: Hep-G2, 1.25 and 2.5 μM, 5 h, Western blot (FIG. 1)
Protocol: SAHA was used as positive control while GAPDH was used to control for protein loading. (1a) Hep-G2 treated with DMSO or 0.1% DMSO solution of SAHA (1.25 μM), STR-V-114 (1.25 μM, 2.5 μM) and STR-V-53 (1.25 μM, 2.5 μM). (1b) Hep-G2 treated with DMSO or 0.1% DMSO solution of SAHA (0.5 μM, 1.25 μM) and STR-I-195 (1.25 μM, 2.5 μM). Cell were treated for 5 h before lysis. Quantifications of gel bands are shown below each gel.

HDAC2 = HDAC2 (Homo sapiens, UniProt Q92769); assay: HDAC inhibition, HDAC2; type: biochemical
Hep-G2 [3] = assay: Cytotoxicity with GLUT2 blockage by Phloretin in Hep-G2; type: cell-based; settings: Hep-G2 treated with Phloretin 24 h prior to incubation (FIG. 5)
Protocol: Hep-G2 and VERO were treated with Phloretin (Ph) for 24 h prior to incubation with STR-V-53 or SAHA. (a) Hep-G2 treated by STR-V-53 with or without Ph. (b) Hep-G2 treated by SAHA with or without Ph. (c) VERO treated by STR-V-53 with or without Ph. (d) VERO treated with SAHA with or without Ph.

HDAC6 = target: T1, HDAC6 (Homo sapiens, UniProt Q9UBN7); assay: HDAC inhibition, HDAC6; type: biochemical
T1 sequence (Q9UBN7 1-1215): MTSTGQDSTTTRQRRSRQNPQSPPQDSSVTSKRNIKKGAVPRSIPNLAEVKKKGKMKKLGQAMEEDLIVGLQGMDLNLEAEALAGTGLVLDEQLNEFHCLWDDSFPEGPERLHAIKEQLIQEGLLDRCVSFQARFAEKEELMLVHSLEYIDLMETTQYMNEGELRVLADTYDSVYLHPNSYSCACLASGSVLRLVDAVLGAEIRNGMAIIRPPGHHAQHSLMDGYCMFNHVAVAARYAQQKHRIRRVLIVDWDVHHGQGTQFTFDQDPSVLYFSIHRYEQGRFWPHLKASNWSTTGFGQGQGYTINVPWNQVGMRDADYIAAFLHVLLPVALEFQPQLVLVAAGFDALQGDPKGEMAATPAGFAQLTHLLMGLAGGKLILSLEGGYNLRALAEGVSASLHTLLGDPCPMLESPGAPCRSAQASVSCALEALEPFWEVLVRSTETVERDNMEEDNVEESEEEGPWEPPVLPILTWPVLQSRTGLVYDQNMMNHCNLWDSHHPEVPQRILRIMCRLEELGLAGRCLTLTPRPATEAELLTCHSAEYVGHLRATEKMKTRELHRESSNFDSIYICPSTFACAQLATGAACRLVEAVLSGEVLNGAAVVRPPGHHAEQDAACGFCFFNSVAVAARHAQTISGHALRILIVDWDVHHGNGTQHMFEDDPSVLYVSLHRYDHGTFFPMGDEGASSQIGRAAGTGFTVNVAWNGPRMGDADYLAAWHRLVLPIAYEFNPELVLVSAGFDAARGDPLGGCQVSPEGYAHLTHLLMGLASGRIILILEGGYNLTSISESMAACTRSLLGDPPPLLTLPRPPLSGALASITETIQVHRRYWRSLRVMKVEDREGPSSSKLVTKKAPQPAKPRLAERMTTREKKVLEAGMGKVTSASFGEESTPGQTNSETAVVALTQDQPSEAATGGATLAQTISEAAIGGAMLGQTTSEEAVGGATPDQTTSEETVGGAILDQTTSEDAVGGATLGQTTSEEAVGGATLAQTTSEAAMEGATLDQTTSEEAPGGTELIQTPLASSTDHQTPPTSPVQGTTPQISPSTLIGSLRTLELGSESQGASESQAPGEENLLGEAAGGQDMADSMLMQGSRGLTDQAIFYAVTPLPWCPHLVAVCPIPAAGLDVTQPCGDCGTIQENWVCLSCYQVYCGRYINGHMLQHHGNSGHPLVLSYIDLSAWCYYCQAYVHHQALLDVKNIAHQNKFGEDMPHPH

Vero cell line = assay: Apoptosis via caspase 3 activation (Western blot) in Vero; type: cell-based; settings: Vero (non-transformed model), 18 h; STR compounds 10 and 20 μM, SAHA 5 μM (FIG. 3)
Protocol: Actin was used to control for protein loading. Cells were treated with DMSO or 0.1% DMSO solution of SAHA (5 μM), STR-V-53 (10 and 20 μM), or STR-I-195 (10 and 20 μM) for 18 h. Quantification of gel bands are shown below the gel.

Hep-G2 cell line = assay: Apoptosis via caspase 3 activation (Western blot) in Hep-G2; type: cell-based; settings: Hep-G2, 18 h; STR compounds 10 and 20 μM, SAHA 5 μM (FIG. 2)
Protocol: Actin was used to control for protein loading. Cells were treated with DMSO or 0.1% DMSO solution of SAHA (5 μM), STR-V-53 (10 and 20 μM), or STR-I-195 (10 and 20 μM) for 18 h. (a) Cropped gel image showing upregulation on cleaved caspase 3 (clv-caspase 3) relative to the DMSO control. (b) Quantification of relative levels of clv-caspase 3. (Bars show mean plus standard deviation; *P<0.0332; **P<0.0021; ***P<0.0002; ****P<[…]).

HDAC1 = HDAC1 (Homo sapiens, UniProt Q13547); assay: HDAC inhibition, HDAC1; type: biochemical
HDAC8 = target: T2, HDAC8 (Homo sapiens, UniProt Q9BY41); assay: HDAC inhibition, HDAC8; type: biochemical
T2 sequence (Q9BY41 1-377): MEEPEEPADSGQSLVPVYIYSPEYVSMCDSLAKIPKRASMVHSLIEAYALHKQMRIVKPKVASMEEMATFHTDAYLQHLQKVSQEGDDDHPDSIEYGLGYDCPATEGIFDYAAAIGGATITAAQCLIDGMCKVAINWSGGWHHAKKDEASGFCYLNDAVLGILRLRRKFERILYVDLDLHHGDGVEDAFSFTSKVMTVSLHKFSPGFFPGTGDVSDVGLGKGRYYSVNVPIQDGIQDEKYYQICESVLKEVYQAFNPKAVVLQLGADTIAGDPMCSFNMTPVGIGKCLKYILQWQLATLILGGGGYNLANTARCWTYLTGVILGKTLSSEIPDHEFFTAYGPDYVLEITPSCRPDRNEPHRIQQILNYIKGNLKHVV

Chain of HDAC1 (Q13547 whole entry): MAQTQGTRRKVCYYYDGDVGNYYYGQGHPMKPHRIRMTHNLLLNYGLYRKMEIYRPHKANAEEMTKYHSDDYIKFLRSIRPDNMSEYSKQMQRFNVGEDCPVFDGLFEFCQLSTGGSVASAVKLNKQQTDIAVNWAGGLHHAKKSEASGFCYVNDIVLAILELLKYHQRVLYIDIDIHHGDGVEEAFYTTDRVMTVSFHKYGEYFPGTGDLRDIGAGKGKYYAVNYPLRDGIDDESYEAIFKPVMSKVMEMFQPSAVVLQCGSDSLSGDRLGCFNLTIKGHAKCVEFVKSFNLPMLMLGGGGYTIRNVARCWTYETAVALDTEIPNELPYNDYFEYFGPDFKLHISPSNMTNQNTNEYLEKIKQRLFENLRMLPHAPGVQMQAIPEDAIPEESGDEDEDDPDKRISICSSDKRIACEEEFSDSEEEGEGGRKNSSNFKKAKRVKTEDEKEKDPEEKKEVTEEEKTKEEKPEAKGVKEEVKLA
Chain of HDAC2 (Q92769 whole entry): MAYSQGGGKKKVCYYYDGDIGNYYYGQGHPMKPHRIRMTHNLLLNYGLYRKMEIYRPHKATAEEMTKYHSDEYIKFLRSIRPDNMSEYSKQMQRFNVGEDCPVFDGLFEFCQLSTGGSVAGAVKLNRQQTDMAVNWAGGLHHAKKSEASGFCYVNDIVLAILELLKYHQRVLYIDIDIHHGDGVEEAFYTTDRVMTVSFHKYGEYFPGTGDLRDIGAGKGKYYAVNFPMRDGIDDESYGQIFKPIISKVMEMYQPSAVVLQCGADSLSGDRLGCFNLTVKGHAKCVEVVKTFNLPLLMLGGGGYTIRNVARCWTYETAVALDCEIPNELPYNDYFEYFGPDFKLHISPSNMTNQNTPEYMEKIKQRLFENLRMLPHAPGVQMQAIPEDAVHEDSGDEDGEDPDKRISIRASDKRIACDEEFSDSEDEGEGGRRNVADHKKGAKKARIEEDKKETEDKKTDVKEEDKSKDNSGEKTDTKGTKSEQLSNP

| SMILES | effect on cell cycle (Hep-G2 [1]) | on-target effect (HDAC inhibition): acetylated tubulin and histone H4 levels [2] | IC50 (HDAC2) | effect of GLUT2 blockage on cytotoxicity (Hep-G2 [3]) | IC50 (HDAC6) | apoptosis (clv-caspase 3) (Vero cell line) | apoptosis via caspase 3 activation (clv-caspase 3) (Hep-G2 cell line) | IC50 (HDAC1) | IC50 (HDAC8) |
| --- | --- | --- | --- | --- | --- | --- | --- | --- | --- |
| O=C(CCCCCCn1cc(-c2ccc(O[C@H]3O[C@H](CO)[C@@H](O)[C@H](O)[C@H]3O)cc2)nn1)NO [STR-V-53] | cell cycle arrest | upregulation of acetylated tubulin and histone H4 | 60.1 nM | attenuates the cytotoxicity | 3.43 nM | did not induce apoptosis | induced apoptosis | 24.3 nM | 843 nM |
| O=C(CCCCCCn1cc(-c2ccc3cc(O[C@H]4O[C@H](CO)[C@@H](O)[C@H](O)[C@H]4O)ccc3c2)nn1)NO [STR-V-114, N-hydroxy-7-(4-(6-(((2R,3R,4S,5S,6R)-3,4,5-trihydroxy-6-(hydroxymethyl)-tetrahydro-211-pyran-2-yl)oxy)naphthalen-2-yl)-1H-1,2,3-triazol-1-yl)heptanamide] | – | upregulation of acetylated tubulin and histone H4 | 61.5 nM | – | 4.5 nM | – | – | 20.3 nM | 2130 nM |
| O=C(CCCCCCC(=O)Nc1ccccc1)NO [SAHA, reference compound] | – | – | – | – | – | induced apoptosis | induced apoptosis | – | – |
| O=C(CCCCCCn1cc(-c2ccc(OC3O[C@H](CO)[C@@H](O)[C@H](O)C3O)cc2)nn1)NO (stereo in doubt) [STR-I-195, N-hydroxy-7-(4-(4-(((2S,3R,4S,5S,6R)-3,4,5-trihydroxy-6-(hydroxymethyl)-tetrahydro-2H-pyran-2-yl)oxy)phenyl)-1H-1,2,3-triazol-1-yl)heptanamide] | – | upregulation of acetylated tubulin and histone H4 | 29.1 nM | – | 2.51 nM | did not induce apoptosis | induced apoptosis | 14.6 nM | 464 nM |
